Among the test systems are BT-549 breast; CCRF-CEM leukemia; COLO 205 colon; HOP-92 NSCLC; OVCAR-8 ovarian; SK-MEL-28 melanoma; SN12C renal; SW-620 colon; T-47D breast; UACC-62 melanoma.
Common to all, as to test: NCI anticancer screen, dose series, 48 h

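Results reflect a 48-hour exposure of cells in 96-well plates to compound at five concentrations. The concentration for 50% growth inhibition is given as GI50. The concentration for full growth arrest is given as TGI.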

Regarding `CC1(C)CC[C@]2(C(=O)O)CC[C@]3(C)C(=CC[C@@H]4[C@@]5(C)C/C(=C/c6ccco6)C(=O)C(C)(C)[C@@H]5CC[C@]43C)[C@@H]2C1`, the GI50 is 4.01 µM in the test on BT-549 breast; 3.16 µM with CCRF-CEM leukemia; 2.02 µM with COLO 205 colon; 2.69 µM in the test with HOP-92 NSCLC; 4.29 µM with OVCAR-8 ovarian; 4.35 µM in the test with SK-MEL-28 melanoma. Also, the GI50 in the test on SN12C renal is 3.37 µM; in the test on SW-620 colon, 3.82 µM; with T-47D breast, 3.23 µM; with UACC-62 melanoma, 3.06 µM. Further, the TGI in the test with BT-549 breast is 23.4 µM; in the test on CCRF-CEM leukemia, 31.6 µM; with COLO 205 colon it was 3.89 µM; in the test on HOP-92 NSCLC, 12.2 µM; with OVCAR-8 ovarian, > 100 µM; with SK-MEL-28 melanoma, 17.4 µM. Moreover, the TGI in the test with SN12C renal worked out at 19.2 µM; with SW-620 colon, 18.2 µM; in the test with T-47D breast it was 48.4 µM; with UACC-62 melanoma, 12.8 µM.

As for `COc1cc(/C=C2\C(=O)N(C)c3ccccc32)cc(OC)c1OC`, the GI50 in the test on BT-549 breast was 33.4 µM; with CCRF-CEM leukemia, 5.42 µM; with COLO 205 colon it was 17.7 µM; in the test on HOP-92 NSCLC, 15.9 µM; in the test on OVCAR-8 ovarian, 22.7 µM; with SK-MEL-28 melanoma, 16 µM. The GI50 in the test on SN12C renal was 17 µM; in the test on SW-620 colon it was 13.4 µM; in the test with T-47D breast, 58 µM; in the test on UACC-62 melanoma, 12 µM. For the same compound, the TGI in the test with BT-549 breast was > 100 µM; in the test with CCRF-CEM leukemia, 87.9 µM; in the test on COLO 205 colon, > 100 µM; in the test on HOP-92 NSCLC it was 70.6 µM; in the test on OVCAR-8 ovarian, 95.2 µM; with SK-MEL-28 melanoma, 44.4 µM. For the same compound, the TGI in the test on SN12C renal was 69.5 µM; in the test on SW-620 colon, > 100 µM; in the test with T-47D breast it was > 100 µM; in the test with UACC-62 melanoma, 32.1 µM.

For `NC(N)=N/N=C(/c1ccccc1)c1ccccc1F`, the GI50 was 5.11 µM with BT-549 breast; 5.08 µM with CCRF-CEM leukemia; 2.16 µM in the test with COLO 205 colon; 18.3 µM with HOP-92 NSCLC; 4.03 µM with OVCAR-8 ovarian; 4.69 µM in the test with SK-MEL-28 melanoma. Moreover, the GI50 is 5.98 µM in the test with SN12C renal, 2.75 µM with SW-620 colon, 12.6 µM in the test with T-47D breast and 4.54 µM in the test on UACC-62 melanoma. Also, the TGI in the test on BT-549 breast was 23.6 µM; with CCRF-CEM leukemia, > 100 µM; with COLO 205 colon, 7.01 µM; in the test on HOP-92 NSCLC, > 81.5 µM; in the test on OVCAR-8 ovarian, 25.8 µM; in the test on SK-MEL-28 melanoma, 21.4 µM. Also, the TGI in the test with SN12C renal stood at 31.3 µM; in the test on SW-620 colon it was 21.1 µM; with T-47D breast, 41.3 µM; in the test with UACC-62 melanoma, 20.7 µM.

`COc1ccc(Cc2nc3cc(OC)c(OC)cc3c(=O)[nH]2)cc1`: the GI50 in the test with BT-549 breast is 4.84 µM; in the test on CCRF-CEM leukemia it was 6.53 µM; with COLO 205 colon, 2.33 µM; in the test with HOP-92 NSCLC it was 21.9 µM; in the test with OVCAR-8 ovarian, 13 µM; in the test with SK-MEL-28 melanoma, 11.5 µM. In addition, the GI50 is 11.2 µM in the test on SN12C renal, 3.32 µM in the test on SW-620 colon, 21.5 µM with T-47D breast and 8.74 µM in the test on UACC-62 melanoma. Besides, the TGI was 29.7 µM in the test with BT-549 breast; > 100 µM in the test on CCRF-CEM leukemia; 6.93 µM in the test on COLO 205 colon; > 100 µM in the test with HOP-92 NSCLC; > 100 µM in the test on OVCAR-8 ovarian; 65.1 µM in the test on SK-MEL-28 melanoma. For the same compound, the TGI was > 100 µM with SN12C renal, > 63.5 µM with SW-620 colon, > 100 µM in the test on T-47D breast and 34.5 µM in the test on UACC-62 melanoma.

For `C#Cc1cccc(NC(=O)C2CCCN(C(=O)CCl)C2)c1` (stereo not given), the GI50 was 38.6 µM in the test on BT-549 breast; 21.7 µM in the test on CCRF-CEM leukemia; 21.5 µM with COLO 205 colon; > 82.5 µM with HOP-92 NSCLC; 61.8 µM with OVCAR-8 ovarian; > 82.5 µM in the test on SK-MEL-28 melanoma. The GI50 in the test with SN12C renal was 19.7 µM; in the test on SW-620 colon, 29.5 µM; with T-47D breast, > 82.5 µM; with UACC-62 melanoma, > 82.5 µM. The TGI in the test on BT-549 breast was > 82.5 µM; in the test with CCRF-CEM leukemia it was 64.4 µM; with COLO 205 colon, 45 µM; in the test on HOP-92 NSCLC, > 82.5 µM; in the test with OVCAR-8 ovarian, > 82.5 µM; with SK-MEL-28 melanoma, > 82.5 µM. Moreover, the TGI in the test with SN12C renal, in the test with SW-620 colon, in the test with T-47D breast and in the test on UACC-62 melanoma was > 82.5 µM throughout.

In the case of `COc1ccc(/C=C\c2cc(OC)c(OC)c(OC)c2)c(NS(=O)(=O)c2ccc(C(C)(C)C)cc2)c1O`, the GI50 with BT-549 breast was 0.467 µM; in the test with CCRF-CEM leukemia, 0.468 µM; with COLO 205 colon it was 3.32 µM; in the test on HOP-92 NSCLC, 0.189 µM; with OVCAR-8 ovarian it was 0.44 µM; in the test with SK-MEL-28 melanoma, 4.91 µM. Besides, the GI50 was 0.618 µM with SN12C renal, 0.329 µM with SW-620 colon, 16.8 µM in the test on T-47D breast and 0.113 µM in the test with UACC-62 melanoma. Besides, the TGI with BT-549 breast is 5.22 µM; in the test on CCRF-CEM leukemia, 35.8 µM; with COLO 205 colon it was 12.5 µM; in the test on HOP-92 NSCLC, 5.92 µM; in the test on OVCAR-8 ovarian, > 100 µM; with SK-MEL-28 melanoma, 22.2 µM. Further, the TGI was determined as 21.4 µM in the test with SN12C renal, 23.5 µM in the test on SW-620 colon, 52.3 µM in the test on T-47D breast and 17.5 µM in the test with UACC-62 melanoma.

As for `COc1ccc(/C=C/C(C)=N/OCC(=O)Nc2ccc(Cl)cc2)cc1`, the GI50 in the test on BT-549 breast is 2.71 µM; with CCRF-CEM leukemia, 2.41 µM; in the test with COLO 205 colon, 3.64 µM; with HOP-92 NSCLC it was 0.561 µM; in the test with OVCAR-8 ovarian, 3.52 µM; in the test with SK-MEL-28 melanoma, 3.17 µM. Besides, the GI50 in the test with SN12C renal was 2.8 µM; in the test on SW-620 colon it was 3.13 µM; in the test on T-47D breast, 1.63 µM; in the test on UACC-62 melanoma it was 1.21 µM. Besides, the TGI with BT-549 breast came to 14.4 µM; in the test on CCRF-CEM leukemia, 29.9 µM; in the test on COLO 205 colon, 14 µM; in the test with HOP-92 NSCLC, 4.68 µM; in the test on OVCAR-8 ovarian it was 29.5 µM; in the test with SK-MEL-28 melanoma it was 31.6 µM. In addition, the TGI with SN12C renal is > 47.7 µM; in the test with SW-620 colon, 20.1 µM; with T-47D breast, 24.8 µM; in the test with UACC-62 melanoma, 6.46 µM.

(Values after PubChem BioAssay (NCI).)
